Results published in US20140335021A1, “Ocular Neostigmine Drops for Diagnosing Myasthenia Gravis” (priority 2013, published 2014).

Experiments:
[1] = tested on: New Zealand White rabbits; experiment: Ocular inflammation on daily instillation for 7 days in rabbits; format: in vivo; details: one drop daily for 7 days, rabbit eye
Description: (§1) 2) experiments in which the standard IV neostigmine solution was instilled into both eyes of patients with probable or definite symptomatic MG.
(§2) The pupil size of both the right and left eyes of each rabbit was measured at baseline in mms by using a plastic ruler. After instilling the neostigmine solution (right eye) or saline (left eye), the pupil size was measured again at 30 minute intervals following drug or saline instillation. One drop of neostimine was instilled daily for 7 days and signs of ocular inflammation were observed.

[2] = tested on: patients with probable or definite MG; experiment: Ocular neostigmine drop test for ptosis in patients with probable or definite myasthenia gravis; format: in vivo, human
Description: as §1
(§3) Both sets of experiments used the standard neostigmine (2.5 mg/ml) solution available in hospitals for anesthetic/surgical use for reversal of neuromuscular block. This solution is buffered and FDA-approved for use in humans. In both sets of experiments, one drop of this solution was used in an eye, limiting substantially the amount of drug that might be absorbed systemically.
Patients with probable or definite MG were asked to sign informed consent approved by the appropriate Institutional Ethics Committees. Ptosis was recorded photographically, and pulse and blood pressure were also recorded prior to beginning the test. One drop of standard IV neostigmine solution (2.5 mg/ml) was instilled into each symptomatic eye of the patient. Fifteen minutes later, possible changes in ptosis were assessed. Pulse and blood pressure was recorded again and after another 15 minutes. At 30 minutes, the patient was evaluated also for possible changes in ptosis (documented by photography), obvious irritation of either eye and for report of discomfort.
Six patients (3 males and 3 females) who presented with ptosis and/or ocular motility disturbance were enrolled in the study. Their ages ranged between 4.5 and 55 years (median=42 years, mean=36.4 years). […]

[3] = tested on: New Zealand White rabbits; experiment: Pupillary size after ocular instillation of neostigmine solution in rabbits; format: in vivo, rabbit; details: for mean [SD] pupillary size, right eye: saline left eye 7.0 mm, p=0.0001
Description: as §1, §3
Male New Zealand White rabbits (2.5-3.0 kg body weight) were used in all experiments. The animals were kept in a room of controlled room temperature (24.0+1.0° C.) and humidity and a fixed dark light cycle (light on at 7:00 am and off at 19:00 pm).
The sterile neostigmine solution (2.5 mg/ml) was instilled into the right eye (one drop), while the control eye (left eye) received one drop of sterile saline (0.9% sodium chloride). Assessment of pupillary size was done at 30 minute intervals following instillation of neostigmine. The left eye of each rabbit acted as control for the right one.
The amount of neostigmine methylsulphate was calculated to be 0.1 mg/drop. Therefore, each rabbit's eye was instilled by 0.1 mg of sterile neostigmine methylsulphate. The sterile dropper for instilling neostigmine was used only once and then discarded. To prevent the drop of neostigmine from leaking out of the rabbit's eye, the lower eye lid of the rabbits was held out for at least 2-3 minutes in order to keep the drop inside the eye and allow for better absorption of the drug through the cornea.
as §2
The mean values for the pupil sizes of the right eyes were recorded as well as those of the left eyes, separately. Paired t-test was used for comparison of data among the different groups on SPSS software. A probability value of <0.05 was considered to be significant.

**Q.** `CN(C)C(=O)Oc1cccc([N+](C)(C)C)c1` [neostigmine, 3-(trimethylamino)phenyl N,N-dimethylcarbamate] was tested. Which ocular inflammation [1] did it give?
**A.** no ocular inflammation

**Q.** And the “response of ptosis (palpebral fissure height)” value ([2]; 3 patients with no prior treatment for MG (Patients 1, 2 and 5))?
**A.** dramatic

**Q.** And the “increase of the palpebral fissure height” value ([2]; all 6 patients with MG, 30 minutes after instillation of one drop 2.5 mg/ml per symptomatic eye)?
**A.** at least 2 mm

**Q.** What about the “pupil diameter, right eye, representative rabbit (FIG. 2)” value (“pupil diameter, right eye” for short) ([3]; 1 week after daily instillation of 1 drop, last drop 24 hours previously) of the same compound?
**A.** 6.0 mm

**Q.** And the “pupil diameter, right eye” value ([3]; 30 mins post neostigmine, pre 6.0 mm)?
**A.** 2.0 mm

**Q.** And the “mean [SD] pupillary size, right eye” value ([3]; 30 minutes after one drop of 2.5 mg/ml solution (0.1 mg) in right eye, 30 rabbits)?
**A.** 4.8 mm

**Q.** And the “pupil diameter, right eye” value ([3]; 60 mins post neostigmine, pre 6.0 mm)?
**A.** 1.5 mm

**Q.** What about the “mean [SD] pupillary size, right eye” value ([3]; 60 minutes after one drop of 2.5 mg/ml solution (0.1 mg) in right eye) of the same compound?
**A.** 4.8 mm
